# Experimental data reported in ChEMBL document CHEMBL1155229, “Physical binding pocket induction for affinity prediction” (J Med Chem, 2009).
# Molecular target: T1, 5-hydroxytryptamine receptor 1A (Homo sapiens, UniProt P08908)
# T1 sequence (P08908 whole entry): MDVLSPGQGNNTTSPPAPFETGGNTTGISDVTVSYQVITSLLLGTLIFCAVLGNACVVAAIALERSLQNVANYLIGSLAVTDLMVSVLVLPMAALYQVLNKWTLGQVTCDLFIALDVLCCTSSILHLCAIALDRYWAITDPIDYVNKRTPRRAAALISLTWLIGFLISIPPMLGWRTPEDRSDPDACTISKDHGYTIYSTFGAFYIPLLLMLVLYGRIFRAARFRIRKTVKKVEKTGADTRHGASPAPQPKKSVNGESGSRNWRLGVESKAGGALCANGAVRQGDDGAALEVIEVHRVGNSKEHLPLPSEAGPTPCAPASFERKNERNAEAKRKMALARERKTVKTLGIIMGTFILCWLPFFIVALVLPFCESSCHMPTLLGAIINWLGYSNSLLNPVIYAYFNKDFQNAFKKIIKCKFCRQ
# Experiment: Binding affinity to 5HT1A receptor
Compound,Kd (read-out: pKd (converted)) [nM],Kd (read-out: Kd) [nM]
CCCN(CCC)[C@H]1CCc2c(F)ccc(O)c2C1,25.1,–
C=CCN1CC[C@H]2c3ccccc3CC[C@H]21,1,–
COc1cccc2c1C[C@H]1CCN(CC3CC3)[C@@H]1C2,31.6,–
CCCN1CC[C@H]2c3c(cccc3OC)CC[C@H]21,0.2,–
C=CCN1C[C@H]2c3c(O)cccc3CC[C@H]21,0.316,–
COc1ccccc1N1CCN(C[C@@H](C(=O)NC(C)(C)C)c2ccccc2)CC1,1.26,–
COc1cccc2c1C[C@@H]1CCN(CC3CC3)[C@@H]1C2,794,–
CCCN1CC[C@@H]2c3c(cccc3OC)CC[C@@H]21,200,–
CN(C)CCc1c[nH]c2ccc(O)cc12 [BUFOTENINE],3.16,–
Clc1cccc(N2CCNCC2)c1 [CHLOROPHENYLPIPERAZINE],100,–
FC(F)(F)c1cccc(C2CNCCO2)c1 (stereo not given) [FLUMEXADOL],251,–
O=C1c2ccccc2S(=O)(=O)N1CCCCN1CCN(c2ncccn2)CC1 [IPSAPIRONE],3.98,–
CN1C[C@@H](NS(=O)(=O)N(C)C)C[C@@H]2c3cccc4c3c(cn4C)C[C@H]21 [MESULERGINE],158,–
Clc1cncc(N2CCNCC2)n1 [MK-212],794,–
O=C(NCCN1CCOCC1)c1ccc(Cl)cc1 [MOCLOBEMIDE],5010,–
CCc1nn(CCCN2CCN(c3cccc(Cl)c3)CC2)c(=O)n1CCOc1ccccc1 [NEFAZODONE],158,–
Fc1ccc([C@@H]2CCNC[C@H]2COc2ccc3c(c2)OCO3)cc1 [PAROXETINE],31600,30000
C[C@H]1[C@H](c2ccccc2)OCCN1C [PHENDIMETRAZINE],12600,–
Cc1nc2ccccn2c(=O)c1CCN1CCC(C(=O)c2ccc(F)cc2)CC1 [PIRENPERONE],2510,–
